In this test the target is T1, Human ACC1 (Homo sapiens, UniProt Q13085).
T1 construct: His6 (from vector pFAST-BacHTc; purified on Ni-NTA) (N); made in house; host or cells: SF-9 insect cells, recombinant baculovirus BAC-ACC1
Kind of test: Measurement of ACC1 inhibitory activity (Malonyl-CoA produced, RapidFire-mass spectrometry). The class given is biochemical. The following applies: 10 μM of the test compound; read-out: ACC1 inhibitory rate (%) at 10 μM. The method, then: (1) Cloning of Human ACC1 Gene and Preparation of Recombinant Baculovirus
Human ACC1 gene was cloned by PCR using a human liver cDNA library (Clontech) as a template and Primer 1 and Primer 2 shown below. Primer 1 and Primer 2 were prepared by adding SalI, NotI restriction enzyme recognition sequences based on the information of the base sequence of human ACC1 gene (Genbank Accession U19822).
PCR was performed using Pyrobest DNA polymerase (TAKARA BIO INC.). The obtained PCR product was cloned to pT7 Blue vector (Novagen) and after confirmation of the base sequence, digested with restriction enzymes SalI and […]. The obtained DNA fragment was inserted into pFAST-BacHTc (Invitrogen) digested with restriction enzymes SalI and […] to give expression plasmid ACC1/pFAST-BacHTc.
Using the expression plasmid ACC1/pFAST-BacHTc and BAC-TO-BAC Baculovirus Expression System (Invitrogen), virus stock BAC-ACC1 of recombinant Baculovirus was prepared.
(2) Preparation of ACC1 Protein
SF-9 cells (Invitrogen) were inoculated to a medium (10 L) for insect cells (Sf-900IISFM medium (Invitrogen) containing 5% fetal bovine serum (Trace), 50 mg/L Gentamicin (Wako Pure Chemical Industries, Ltd.) and 0.1% Pluronic F-68 (Invitrogen)) at 1.0×10^6 cells/mL, and cultured with shaking in Wave Bioreactor (GE Healthcare) at 27° C., 20 rpm, rocking angle 100, oxygen concentration 30%.
On day 2 of the culture, recombinant Baculovirus BAC-ACC1 was added, and the cells were cultured for 3 days. The culture medium was centrifuged at 4000×g for 10 min to give virus-infected cells. The cells were washed with phosphate buffered saline (Invitrogen) and centrifuged under the same conditions. The obtained cells were cryopreserved at −80° C.
The cryopreserved cells were thawed in ice, and suspended in 800 mL of 25 mM HEPES buffer (pH 7.5) containing 10% Glycerol, 0.3 M NaCl, 1 mM EDTA, 25 mM Sodium β-Glycerophosphate and 1 mM Sodium Orthovanadate, and supplemented with Complete Protease Inhibitor (Roche). The obtained suspension was homogenized two times in a polytron homogenizer (Kinematica) at 20,000 rpm for 20 sec. The obtained cell disruption solution was clarified by centrifugation at 186,000×g for 60 min, and the supernatant was passed through Ni-NTA Superflow Cartridges (5 mL) (QUIAGEN). Furthermore, it was washed with 25 mM HEPES buffer (pH 7.5) containing 20 mM Imidazole and 0.3 M NaCl, and eluted with 25 mM HEPES buffer (pH 7.5) containing 250 mM Imidazol and 0.3 M NaCl. The eluate was concentrated by Amicon Ultra-15 (Nihon Millipore K.K.) having a fraction molecular weight of 50K. The obtained concentrate was subjected to gel filtration with 50 mM HEPES buffer (pH 7.5) containing 10 mM MgCl2, 2 mM dithiothreitol, 10 mM tripotassium citrate and 0.3 M NaCl by using HiLoad 26/60 Superdex200 prep grade gel filtration column (GE Healthcare) to give ACC1. The obtained ACC1 was cryopreserved at −80° C.
(3) Measurement of ACC1 Inhibitory Activity
ACC1 obtained in the above-mentioned (2) was diluted with an enzyme reaction buffer (50 mM HEPES (pH 7.5), 10 mM MgCl2, 10 mM Tripottasium Citrate, 2 mM Dithiothreitol, 0.001% Fatty acid free BSA) to a concentration of 0.2 μg/ml, and the mixture was added to each well of a 384 well assay plate by 10 μl. A test compound dissolved in dimethyl sulfoxide (DMSO) was diluted with an enzyme reaction buffer, and the resulting solution (5 μl) was added to each well. The mixture was incubated at room temperature for 60 min. Then, a substrate solution (50 mM KHCO3, 200 μM ATP, 200 μM Acetyl-CoA, 5 μl) was added to each well, and the mixture was reacted at room temperature for 30 min. The reaction was quenched by adding a reaction quenching liquid (1.3% formic acid, 0.2 μM Malonyl-^13C3-CoA) by 60 μL each to the obtained reaction mixtures (test compound addition group).
In addition, a reaction was performed in the same manner as above and without adding the test compound (test compound non-addition group). […]

SMILES strings stand for the structures.

For the compound `C[C@@H](COc1cnc(-c2ccc(Oc3cccc(OCC4CC4)c3)cc2)o1)NC(N)=O` [Example 82, 1-((2S)-1-((2-(4-(3-(cyclopropylmethoxy)phenoxy)phenyl)-1,3-oxazol-5-yl)oxy)propan-2-yl)urea], the inhibition at 10 µM is 96%.
